Laboratory results reported in patent US8415342B2, “Besifloxacin ophthalmic composition for the treatment or control of infection” (Bausch & Lomb Incorporated, priority 2008, dated 2013).
≈ marks a conversion by molar mass, not a printed value. Like-named read-outs stand apart in the source and are kept apart here.

Columns and labels:
Assay type in all cases: cell-based
[1] = system: Staphylococcus saprophyticus; assay: MIC, CLSI broth microdilution, clinical isolates; settings: Staphylococcus saprophyticus (N = 101)
Viridans streptococci = assay: MIC, CLSI broth microdilution, clinical isolates; settings: Viridans streptococci (N = 156)
Citrobacter koseri = assay: MIC, CLSI broth microdilution, clinical isolates; settings: Citrobacter koseri (N = 100)
[2] = system: Staphylococcus haemolyticus; assay: MIC, CLSI broth microdilution, clinical isolates; settings: Staphylococcus haemolyticus (N = 101)
Streptococcus pyogenes = assay: MIC, CLSI broth microdilution, clinical isolates; settings: Streptococcus pyogenes (N = 101)
Morganella morganii = assay: MIC, CLSI broth microdilution, clinical isolates; settings: Morganella morganii (N = 51)
Legionella pneumophila = assay: microbe, parasite or virus in culture
[3] = system: Staphylococcus epidermidis; assay: MIC, CLSI broth microdilution, clinical isolates; settings: for MIC50: Staphylococcus epidermidis
Streptococcus agalactiae = assay: MIC, CLSI broth microdilution, clinical isolates; settings: Streptococcus agalactiae (N = 100)
Staphylococcus warneri = assay: MIC, CLSI broth microdilution, clinical isolates; settings: Staphylococcus warneri (N = 50)
Staphylococcus hominis = assay: MIC, CLSI broth microdilution, clinical isolates; settings: Staphylococcus hominis (N = 50)
Staphylococcus aureus = assay: MIC, CLSI broth microdilution, clinical isolates; settings: for MIC50 / MIC90: Staphylococcus aureus
Haemophilus influenzae = assay: MIC, CLSI broth microdilution, clinical isolates; settings: for MIC50 / MIC90: Haemophilus influenzae
[4] = system: Lancefield group C, F, G streptococci; assay: MIC, CLSI broth microdilution, clinical isolates; settings: G streptococci (N = 50)
Klebsiella oxytoca = assay: MIC, CLSI broth microdilution, clinical isolates; settings: Klebsiella oxytoca (N = 50)
Streptococcus pneumoniae = assay: MIC, CLSI broth microdilution, clinical isolates
Moraxella catarrhalis = assay: MIC, CLSI broth microdilution, clinical isolates; settings: Moraxella catarrhalis (N = 101)
[5] = system: Staphylococcus lugdunensis; assay: MIC, CLSI broth microdilution, clinical isolates; settings: Staphylococcus lugdunensis (N = 15)
[6] = Staphylococcus epidermidis (CNS, N = 6)
[7] = Staphylococcus epidermidis (CS, N = 9)
[8] = Staphylococcus epidermidis (MSSE, N = 6)
[9] = Staphylococcus epidermidis (all phenotypes, N = 15)
[10] = Staphylococcus aureus (CNS, N = 16)
[11] = Staphylococcus aureus (CS, N = 14)
[12] = Staphylococcus aureus (all phenotypes, N = 30)
[13] = MRSA, Staphylococcus aureus (MRSA, N = 11)
[14] = MSSA, Staphylococcus aureus (MSSA, N = 19)
[15] = Haemophilus influenzae (all phenotypes, N = 40)
[16] = Haemophilus influenzae (bla negative, N = 24)
[17] = Haemophilus influenzae (bla positive, N = 16)
[18] = Streptococcus pneumoniae (PISP, N = 2)
[19] = Streptococcus pneumoniae (PRSP, N = 2)
[20] = Streptococcus pneumoniae (PSSP, N = 31)
[21] = Streptococcus pneumoniae (all phenotypes, N = 35)

For `C[C@H]1COc2c(N3CCN(C)CC3)c(F)cc3c(=O)c(C(=O)O)cn1c23` [Levofloxacin], the “% S” value [1] was 100.0%, the MIC50 [1] was 0.5 µg/mL (≈ 1.38 µM) and the MIC90 [1] was 0.5 µg/mL (≈ 1.38 µM). For the same compound, the “MIC Range” value [1] was 0.06 to 0.5 µg/mL, the “% S” value (Viridans streptococci) was 95.5% and the MIC50 (Viridans streptococci; read-out: MIC50) was 1 µg/mL (≈ 2.77 µM). For the same compound, the MIC90 (Viridans streptococci; read-out: MIC90) was 1 µg/mL (≈ 2.77 µM), the “% S” value (Citrobacter koseri) was 99.0% and the MIC50 (Citrobacter koseri) was 0.03 µg/mL (≈ 0.083 µM). The MIC90 (Citrobacter koseri) was 0.12 µg/mL (≈ 0.332 µM), the “% S” value [2] was 39.6% and the MIC50 [2] was 4 µg/mL (≈ 11.1 µM). The MIC90 [2] was greater than 8 µg/mL, the “% S” value (Streptococcus pyogenes) was 100.0% and the “MIC Range” value (Streptococcus pyogenes) was 0.25 to 2 µg/mL. For the same compound, the MIC50 (Streptococcus pyogenes; read-out: MIC50) was 0.5 µg/mL (≈ 1.38 µM), the MIC90 (Streptococcus pyogenes; read-out: MIC90) was 0.5 µg/mL (≈ 1.38 µM) and the “% S” value (Morganella morganii) was 76.5%. For the same compound, the MIC50 (Morganella morganii) was 0.06 µg/mL (≈ 0.166 µM), the MIC90 (Morganella morganii) was 8 µg/mL (≈ 22.1 µM) and the MIC50 (Legionella pneumophila; Legionella pneumophila) was 0.03 µg/mL (≈ 0.083 µM). The MIC90 (Legionella pneumophila; Legionella pneumophila) was 0.03 µg/mL (≈ 0.083 µM), the “MIC Range” value (Legionella pneumophila; Legionella pneumophila (N = 50)) was 0.015 to 0.06 µg/mL and the “% S” value [3, 6] was 0.0%. The “% S” value [3, 7] was 100.0%, the “MIC Range” value [3, 7] was 0.12-0.12 μg/mL and the “% S” value ([3]; Staphylococcus epidermidis (MRSE, N = 9)) was 44.4%. For the same compound, the “% S” value [3, 8] was 83.3%, the “MIC Range” value [3, 8] was 0.12 to 8 µg/mL and the “% S” value [3, 9] was 60.0%. For the same compound, the MIC90 [3, 9] was greater than 8 µg/mL, the MIC50 ([3]; MRSE, Staphylococcus epidermidis (MRSE, N = 9)) was 2 µg/mL (≈ 5.53 µM) and the MIC50 [3, 6] was 8 µg/mL (≈ 22.1 µM). It also gave an MIC50 [3, 7] of 0.12 µg/mL (≈ 0.332 µM), an MIC50 [3, 8] of 0.12 µg/mL (≈ 0.332 µM) and an MIC50 [3, 9] of 0.12 µg/mL (≈ 0.332 µM). For the same compound, the “% S” value (Streptococcus agalactiae) was 98.0%, the “MIC Range” value (Streptococcus agalactiae) was 0.25 to 4 µg/mL and the MIC50 (Streptococcus agalactiae; read-out: MIC50) was 0.5 µg/mL (≈ 1.38 µM). For the same compound, the MIC90 (Streptococcus agalactiae; read-out: MIC90) was 1 µg/mL (≈ 2.77 µM), the “% S” value (Staphylococcus warneri) was 76.0% and the MIC50 (Staphylococcus warneri) was 0.12 µg/mL (≈ 0.332 µM). The MIC90 (Staphylococcus warneri) was greater than 8 µg/mL, the “% S” value (Staphylococcus hominis) was 30.0% and the MIC50 (Staphylococcus hominis) was 8 µg/mL (≈ 22.1 µM). For the same compound, the MIC90 (Staphylococcus hominis) was greater than 8 µg/mL, the “% S” value (Staphylococcus aureus; [10]) was 12.5% and the “% S” value (Staphylococcus aureus; [11]) was 92.9%. For the same compound, the “MIC Range” value (Staphylococcus aureus; [11]) was 0.06 to 2 µg/mL, the “% S” value (Staphylococcus aureus; Staphylococcus aureus (MRSA, N = 11)) was 18.2% and the “% S” value (Staphylococcus aureus; Staphylococcus aureus (MSSA, N = 19)) was 68.4%. The “% S” value (Staphylococcus aureus; [12]) was 50.0%, the MIC50 (Staphylococcus aureus; [13]) was 4 µg/mL (≈ 11.1 µM) and the MIC90 (Staphylococcus aureus; [13]) was greater than 8 µg/mL. The MIC50 (Staphylococcus aureus; [14]) was 0.25 µg/mL (≈ 0.692 µM), the MIC90 (Staphylococcus aureus; [14]) was 4 µg/mL (≈ 11.1 µM) and the MIC50 (Staphylococcus aureus; [10]) was 4 µg/mL (≈ 11.1 µM). The MIC90 (Staphylococcus aureus; [10]) was greater than 8 µg/mL, the MIC50 (Staphylococcus aureus; [11]) was 0.12 µg/mL (≈ 0.332 µM) and the MIC90 (Staphylococcus aureus; [11]) was 0.25 µg/mL (≈ 0.692 µM). The MIC50 (Staphylococcus aureus; [12]) was 1 µg/mL (≈ 2.77 µM), the MIC90 (Staphylococcus aureus; [12]) was greater than 8 µg/mL and the “% S” value (Haemophilus influenzae; [15]) was 100.0%. The “MIC Range” value (Haemophilus influenzae; [15]) was 0.008 to 0.015 µg/mL, the “% S” value (Haemophilus influenzae; [16]) was 100.0% and the “MIC Range” value (Haemophilus influenzae; [16]) was 0.008 to 0.015 µg/mL. For the same compound, the “% S” value (Haemophilus influenzae; [17]) was 100.0%, the “MIC Range” value (Haemophilus influenzae; [17]) was 0.015-0.015 μg/mL and the MIC50 (Haemophilus influenzae; [15]) was 0.015 µg/mL (≈ 0.0415 µM). It also gave an MIC90 (Haemophilus influenzae; [15]) of 0.015 µg/mL (≈ 0.0415 µM), an MIC50 (Haemophilus influenzae; [16]) of 0.015 µg/mL (≈ 0.0415 µM) and an MIC90 (Haemophilus influenzae; [16]) of 0.015 µg/mL (≈ 0.0415 µM). The MIC50 (Haemophilus influenzae; [17]) was 0.015 µg/mL (≈ 0.0415 µM), the MIC90 (Haemophilus influenzae; [17]) was 0.015 µg/mL (≈ 0.0415 µM) and the “% S” value [4] was 98.0%. The “MIC Range” value [4] was 0.12 to 8 µg/mL, the MIC50 ([4]; read-out: MIC50) was 0.5 µg/mL (≈ 1.38 µM) and the MIC90 ([4]; read-out: MIC90) was 0.5 µg/mL (≈ 1.38 µM). For the same compound, the “% S” value (Klebsiella oxytoca) was 90.0%, the MIC50 (Klebsiella oxytoca) was 0.03 µg/mL (≈ 0.083 µM) and the MIC90 (Klebsiella oxytoca) was 0.5 µg/mL (≈ 1.38 µM). For the same compound, the “MIC Range” value (Klebsiella oxytoca) was 0.015 to 8 µg/mL, the “% S” value (Streptococcus pneumoniae; [18]) was 100.0% and the “MIC Range” value (Streptococcus pneumoniae; [18]) was 0.5 to 1 µg/mL. For the same compound, the “% S” value (Streptococcus pneumoniae; [19]) was 100.0%, the “MIC Range” value (Streptococcus pneumoniae; [19]) was 0.5 to 1 µg/mL and the “% S” value (Streptococcus pneumoniae; [20]) was 96.8%. The MIC50 (Streptococcus pneumoniae; [20]) was 0.5 µg/mL (≈ 1.38 µM), the MIC90 (Streptococcus pneumoniae; [20]) was 1 µg/mL (≈ 2.77 µM) and the “MIC Range” value (Streptococcus pneumoniae; [20]) was 0.5 to 8 µg/mL. The “% S” value (Streptococcus pneumoniae; [21]) was 97.1%, the “MIC Range” value (Streptococcus pneumoniae; [21]) was 0.5 to 8 µg/mL and the MIC50 (Streptococcus pneumoniae; Streptococcus pneumoniae (all phenotypes, N = 35), read-out: MIC50) was 0.5 µg/mL (≈ 1.38 µM). For the same compound, the MIC90 (Streptococcus pneumoniae; Streptococcus pneumoniae (all phenotypes, N = 35), read-out: MIC90) was 1 µg/mL (≈ 2.77 µM), the “% S” value (Moraxella catarrhalis) was 100.0% and the MIC50 (Moraxella catarrhalis) was 0.015 µg/mL (≈ 0.0415 µM). The MIC90 (Moraxella catarrhalis) was 0.03 µg/mL (≈ 0.083 µM), the “MIC Range” value (Moraxella catarrhalis) was 0.015 to 0.5 µg/mL and the “% S” value [5] was 66.7%. The MIC50 [5] was 0.25 µg/mL (≈ 0.692 µM) and the MIC90 [5] was greater than 8 µg/mL.
